Assays:
Assay type in all cases: in vivo
morphine-dependent mice = test: Naloxone-precipitated withdrawal jumping in mice with chronic morphine dependence; details: for naloxone-induced jumping behavior: naloxone 5 mg/kg + SSZ 30 mg/kg or capsazepine 5 mg/kg
Description: Chronic morphine dependence was induced by repeated injections for four consecutive days with an escalating dose schedule. Mice received morphine twice daily (morning and afternoon) for 4 days (day 1: 12 mg/kg and 25 mg/kg; day 2: 25 mg/kg and 50 mg/kg; day 3: 50 mg/kg and 75 mg/kg; day 4: 75 mg/kg and 100 mg/kg). On the testing day (day 5), a final morphine dose (50 mg/kg) was administered before exam.
A single dose of naloxone (5 mg/kg) was administered to all mice 60 mins after the final morphine dose. Immediately, following with naloxone injection, animals were placed into individual Plexiglas observation cylinders. Withdrawal jumping response symptoms were recorded and the frequency of jumps for each mouse was summed over one hour.
It was first determined whether system xc^− contributes to opioid dependence. WT and xCT KO mice were received the repeated injections for four consecutive days with an escalating dose schedule for the induction of chronic morphine dependence. Mice received morphine twice daily (morning and afternoon) for 4 days (day 1: 12 mg/kg and 25 mg/kg; day 2: 25 mg/kg and 50 mg/kg; day 3: 50 mg/kg and 75 mg/kg; day 4: 75 mg/kg and 100 mg/kg). On the testing day (day 5), a final morphine dose (50 mg/kg) was administered before naloxone-induced acute withdrawal syndromes. […] To observe the effect of system xc^− inhibits in opioid withdrawal, mice with chronic morphine dependence were randomly divided into the following groups (sample size N=6 in each group): group 1: control mice without any treatment; group 2: morphine-dependent mice with vehicle treatment; group 3: morphine-dependent mice with naloxone (5 mg/kg) treatment; group 4: morphine-dependent mice with naloxone (5 mg/kg)+methadone (10 mg/kg) treatment; group 5: morphine-dependent mice with naloxone (5 mg/kg)+SSZ (30 mg/kg) treatment; and group 6: morphine-dependent mice with naloxone (5 mg/kg)+capsazepine (5 mg/kg).

mice [1] = test: Opioid tolerance, morphine percent maximal possible effect (% MPE) over 7 days; details: WT mice; for development of tolerance, in comparison to the morphine alone group / number of days of morphine-induced analgesic effect, in comparison to the morphine alone group: co-treatment with morphine 20 mg/kg/day, SSZ 60 mg/kg/day or capsazepine 10 mg/kg/day, twice daily 7 days
Description: To test whether system xc^− plays a role in opioid tolerance, WT and xCT KO mice were injected intraperitoneally with morphine twice daily and tested on 7 days continuously for determination of their respective morphine percent maximal possible effect (% MPE). Analgesic effect was expressed as % MPE, where % MPE=(test−baseline latency)/(cutoff−baseline)×100. […] Next, the WT mice were received the co-administration of system xc^− inhibitor, SSZ or capsazepine, and morphine twice daily for one-week observation.

mice [2] = test: Thermal hyperalgesia, hot plate test; details: for latency of first sign of pain in the hot-plate test: WT and xCT KO mice (both genotypes), ip morphine 10 mg/kg/day or methadone 4 mg/kg/day for 7 days; for analgesic effect in xCT KO mice compared to WT mice: hot plate and von Frey tests, morphine 10 mg/kg/day or methadone 4 mg/kg/day for 7 days; for latencies of the first sign of pain in the hot-plate test, compared to vehicle: wild-type mice, SSZ 30 mg/kg/day, morphine 10 mg/kg/day, methadone 5 mg/kg/day or combinations for 8 days
Description: (§1) The thermal hyperalgesia was evaluated by placing the mice in a 1000 ml beaker and on the 56±2° C. hot plate with the maximum of 35 second to prevent tissue damage. The time is recorded when the mice jumps on to the edge of the beaker, the value is considered as the withdrawal threshold. A customized transparent acrylic chamber with the size of 20×20×20 cm and 5 mm thick acrylic with 2 mm diameter holes throughout the entire platform is used to determine the mechanical allodynia and thermal hyperalgesia. Mice were placed in the chamber to evaluate the mechanical allodynia by applying a 0.6 g pressure von Frey hair (Touch-Test Sensory Evaluator, North Coast Medical, Inc) to the hind paws of the mice for five times with a five second interval. If the mice hind paw is withdrawn from the platform over three times, the pressure of the von Frey hair will be recorded and regarded as the withdrawal threshold.

mice [3] = test: Mechanical allodynia, von Frey filament test; details: for withdraw threshold in von Frey filament test: WT and xCT KO mice (both genotypes), ip morphine 10 mg/kg/day or methadone 4 mg/kg/day for 7 days; for withdraw threshold in von Frey filament test, compared to vehicle: wild-type mice, SSZ 30 mg/kg/day, morphine 10 mg/kg/day, methadone 5 mg/kg/day or combinations for 8 days
Description: as §1

mice [4] = test: Opioid-induced constipation, fecal collection and stool weight; details: wild-type mice; SSZ 30 mg/kg, morphine 10 mg/kg or combination, ip, 7 days
Description: Fecal collections and the stool weighed were recorded before and after morphine and/or SSZ administration. The fecal was collected every two days.
Opioid-induced constipation is a side effect for using opioid pain relief medication.

| SMILES | jumping behavior (withdrawal) (morphine-dependent mice; naloxone 5 mg/kg, observed one hour) | development of tolerance, in comparison to the morphine alone group (mice [1]) | number of days of morphine-induced analgesic effect, in comparison to the morphine alone group (mice [1]) | naloxone-induced jumping behavior (morphine-dependent mice) | latency of first sign of pain in the hot-plate test (mice [2]) | analgesic effect in xCT KO mice compared to WT mice (mice [2]) | latencies of the first sign of pain in the hot-plate test, compared to vehicle (mice [2]) | withdraw threshold in von Frey filament test (mice [3]) | withdraw threshold in von Frey filament test, compared to vehicle (mice [3]) | opioid-induced constipation / defecation (stool weight) (mice [4]) | opioid tolerance (% MPE) (mice [1]; morphine 20 mg/kg/day ip twice daily, 7 days) |
| --- | --- | --- | --- | --- | --- | --- | --- | --- | --- | --- | --- |
| C=CCN1CC[C@]23c4c5ccc(O)c4O[C@H]2C(=O)CC[C@@]3(O)[C@H]1C5 [naloxone] | significant jumping behavior compared to other groups |  |  |  |  |  |  |  |  |  |  |
| Oc1cc2c(cc1O)CN(C(=S)NCCc1ccc(Cl)cc1)CCC2 [capsazepine] |  | significantly attenuated the development of tolerance | prolong the number of days of morphine-induced analgesic effect | inhibited naloxone-induced jumping behavior |  |  |  |  |  |  |  |
| CCC(=O)C(CC(C)N(C)C)(c1ccccc1)c1ccccc1 (stereo not shown) [methadone] |  |  |  |  | significantly increased | higher than that in WT mice | more than those in vehicle-treated mice | significantly increased | more than those in vehicle-treated mice |  |  |
| O=C(O)c1cc(/N=N/c2ccc(S(=O)(=O)Nc3ccccn3)cc2)ccc1O [SSZ, sulfasalazine] |  | significantly attenuated the development of tolerance | prolong the number of days of morphine-induced analgesic effect | inhibited naloxone-induced jumping behavior |  |  | more than those in vehicle-treated mice |  | more than those in vehicle-treated mice | didn't decreased or increased defecation |  |
| CN1CC[C@]23c4c5ccc(O)c4O[C@H]2[C@@H](O)C=C[C@H]3[C@H]1C5 [morphine] |  |  |  |  | significantly increased | higher than that in WT mice | more than those in vehicle-treated mice | significantly increased | more than those in vehicle-treated mice | developed the opioid-induced constipation | significant opioid tolerance on day 3 |

— patent publication US20210177869A1, “METHODS AND COMBINATIONS FOR MODULATING TOLERANCE TO OPIATES, OPIOIDS OR OPIOID ANALGESICS AND TREATING ACUTE AND CHRONIC PAIN” (CHINA MEDICAL UNIVERSITY, priority 2018, published 2021)
